Measurements: publication PMC6154605, “Multi-Anti-Parasitic Activity of Arylidene Ketones and Thiazolidene Hydrazines against Trypanosoma cruzi and Leishmania spp” (Molecules : A Journal of Synthetic Chemistry and Natural …, 2017)
Marks after values point to notes of the source that are not given here.

Legend:
zebrafish embryos = test: Zebrafish embryo toxicity test (LD50)
[1] = tested on: L. braziliensis promastigotes; test: Leishmanicidal activity on promastigotes, resazurin; assay type: cell-based, Leishmania braziliensis
How it was run: (§1)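 Promastigotes (2 × 10^6/well) in Schneider's medium with 20% FBS treated with compound dilutions for 48 h at 26 °C. Resazurin reduction read at 570 and 600 nm; IC50 from duplicate experiments, triplicate concentrations.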

NCTC929 fibroblasts = test: Nonspecific cytotoxicity on fibroblasts, resazurin; assay type: cell-based; settings: NCTC-929, 24 h; read-out: IC50 ± SD Fibroblast NCTC929
How it was run: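 NCTC929 murine fibroblasts seeded 3.00 × 10^4 cells/well, grown overnight, then exposed to compounds for 24 h at 37 °C, 5% CO2. Viability read by resazurin reduction (3 h), dual-wavelength absorbance at 490 and 595 nm with background subtracted. Each concentration tested three times.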

[2] = target: T1, LmTIM (triosephosphate isomerase from Leishmania mexicana) (Leishmania mexicana, UniProt P48499); test: Inhibition of triosephosphate isomerase; assay type: biochemical; settings: read-out: Percentage of Inhibition LmTIM
T1 construct: made in house; host or cells: Escherichia coli
T1 sequence (P48499 whole entry): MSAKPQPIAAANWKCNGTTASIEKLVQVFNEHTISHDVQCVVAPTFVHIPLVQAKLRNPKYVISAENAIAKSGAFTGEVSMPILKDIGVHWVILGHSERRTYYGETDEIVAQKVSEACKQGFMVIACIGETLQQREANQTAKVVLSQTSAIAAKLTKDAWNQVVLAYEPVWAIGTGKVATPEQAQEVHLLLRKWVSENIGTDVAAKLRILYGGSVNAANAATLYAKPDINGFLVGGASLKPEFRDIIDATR
Protocol: Compounds were dissolved in DMSO. […] The experiments were performed in triplicate.

[3] = tested on: J774.1 murine macrophages; settings: J774.1; read-out: IC50 ± SD Murine Macrophages; cited from earlier work
[4] = tested on: L. infantum promastigotes; test: Leishmanicidal activity on promastigotes, resazurin; assay type: cell-based, Leishmania infantum; settings: Leishmania infantum, 48 h; read-out: IC50 ± SD Promastigotes L. infantum
How it was run: as §1

[5] = tested on: T. cruzi epimastigotes, Tulahuen 2 strain (genotype TcVI); settings: cited from earlier work
cruzipain = cruzipain (Trypanosoma cruzi, UniProt P25779); test: Inhibition of T. cruzi cruzipain; assay type: biochemical; settings: at 100 µM; read-out: Percentage of Inhibition Cruzipain
cruzipain, sequence (P25779 123-467): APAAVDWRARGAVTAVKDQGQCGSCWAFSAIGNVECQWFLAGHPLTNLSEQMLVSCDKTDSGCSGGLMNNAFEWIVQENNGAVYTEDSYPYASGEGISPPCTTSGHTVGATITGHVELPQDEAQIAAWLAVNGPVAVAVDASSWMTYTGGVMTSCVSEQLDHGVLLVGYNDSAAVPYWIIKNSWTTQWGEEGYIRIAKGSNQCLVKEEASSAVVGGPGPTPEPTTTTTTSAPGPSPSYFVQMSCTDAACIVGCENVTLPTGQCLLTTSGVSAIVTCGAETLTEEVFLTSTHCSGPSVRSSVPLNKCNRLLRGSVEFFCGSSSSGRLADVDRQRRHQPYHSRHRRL
Protocol: Cruzipain was purified to homogeneity from epimastigotes of the Tulahuen 2 strain by ConA–Sepharose affinity chromatography, as previously described. Cruzipain (2.5 μM ε = 58,285 M^−1cm^−1) was incubated in 50 mM acetate buffer pH 5.5 with 5 mM DTT, and 100 μM inhibitor were added, shaking the solution for 15 min at 27 °C. The derivatives were added as solutions in DMSO, and the controls contained the same solvent concentration. The concentration of DMSO never exceeded 1% in the reaction medium. L-leucylam-ido(4-guanidino)butane (E-64) was used as a positive control of inhibition. Then, the fluorogenic substrate Z-Phe-Arg 7-amido-4-methylcoumarin hydrochloride (Z-Phe-Arg-AMC) at 10 μM was added, and the fluorescence was measured during 10 min at intervals of 3 s (excitation at 380 nm and emission at 460 nm) using a Varioskan Flash Spectrophotometer. From the slope of the negative control, we calculated the total (100%) enzyme activity, while the slopes obtained in the presence of the compounds yielded the percentage of remaining enzyme activity. The percentage of enzyme inhibition was determined as […]. The experiments were done in duplicate.

[6] = target: triosephosphate isomerase from T. cruzi (TcTIM) (Trypanosoma cruzi, UniProt P52270); test: Inhibition of triosephosphate isomerase; settings: read-out: Percentage of Inhibition TcTIM
triosephosphate isomerase from T. cruzi (TcTIM), sequence (P52270 whole entry): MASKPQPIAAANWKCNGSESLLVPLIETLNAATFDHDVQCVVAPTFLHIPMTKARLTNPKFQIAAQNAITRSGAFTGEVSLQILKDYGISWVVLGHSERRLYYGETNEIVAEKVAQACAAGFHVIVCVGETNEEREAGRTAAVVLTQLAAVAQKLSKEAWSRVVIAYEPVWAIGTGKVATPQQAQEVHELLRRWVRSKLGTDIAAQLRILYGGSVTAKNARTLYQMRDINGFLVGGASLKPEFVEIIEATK
Protocol: Expression and purification of proteins: TcTIM, LmTIM and HsTIM were expressed in Escherichia coli and purified as described in the literature [39]. […] Before use, extensive dialysis against 100 mM triethanolamine/10 mM EDTA (pH 7.4) was performed.
Enzymatic activity assays: Enzymatic activity was determined following the conversion of glyceraldehyde 3-phosphate into dihydroxyacetone phosphate. […] The reaction mixture (1 mL, pH 7.4) contained 100 mM triethanolamine, 10 mM EDTA, 0.2 mM NADH, 1 mM glyceraldehyde 3-phosphate and 0.9 units of α-glycerol phosphate dehydrogenase. The reaction was initiated by the addition of 5 ng/mL of the TcTIM.
The mixture also contained the compounds at the indicated concentrations. Compounds were dissolved in DMSO. After 2 h, 10 µL was withdrawn and added to a final volume of 100 µL of the reaction mixture for the activity assay. The inhibition assay was performed in a 96-well microplate Varioskan spectrophotometer. […] The experiments were performed in triplicate.

C=CCn1c(-c2ccc(Cl)cc2)cs\c1=N/N=C/C=C/c1ccco1 [GAT1033]
LD50 without chorion (zebrafish embryos; dechorionated zebrafish embryos, 72 h incubation): 27 ± 1 µM
LD50 with chorion (zebrafish embryos; zebrafish embryos with chorion): > 100 µM
IC50 ([1]; Leishmania braziliensis, 48 h, read-out: IC50 ± SD Promastigotes L. braziliensis): 7 ± 1 µM
SI NCTC/ L. braziliensis ([1]; ratio IC50 mammalian cell / IC50 parasite (promastigotes)): 58
IC50 (NCTC929 fibroblasts): 405 ± 10 µM
inhibition at 100 µM [2]: 0%
IC50 [3]: 60 ± 6 µM
IC50 [4]: 2 ± 0.2 µM
SI J774.1/ T. cruzi ([5]; ratio IC50 mammalian cell / IC50 parasite (epimastigotes)): 37 ^a
IC50 ([5]; read-out: IC50 ± SD Epimastigotes T. cruzi): 1.6 ± 0.5 µM
inhibition at 100 µM (cruzipain): 0%
inhibition at 100 µM [6]: 0%
